# According to EP1981504B1, “THIADIAZOLE DERIVATIVES FOR THE TREATMENT OF NEURO DEGENERATIVE DISEASES” (NV reMYND, priority 2006, dated 2007):
# Test system: M17-SYNwt cells
# Experiment: α-synuclein cytotoxicity assay (LDH leakage from paraquat-treated α-synuclein over-expressing neuroblastoma cells)
# Type: cell-based, human
# Conditions: paraquat 32 mM, 40 hours, LDH release; for %I: percent inhibition of synuclein cytotoxicity at most effective concentration of test compound, relative to untreated paraquat cells; for EC50: Homo sapiens, Neuroblastoma cell, 10 point curves in duplicate
# Description: Subsequently, LDH activity was determined using Promega Cytotox 96 NonRadioactive cytotoxicity assay, (Cat. G1780) according the supplier's instructions.
# This corresponds to the following equation: (LDHreleaseoftreatedparaquatcellsatnon-effectiveconcentrationoftestcmpd)−(LDHreleaseoftreatedparaquatcellsatmosteffectiveconcentrationoftestcmpd)/(LDHreleaseofuntreatedparaquatcells)−(LDHreleasecontrolcells)*100% [formula]
# 1,2,4-thiadazole compounds made according to the methods described herein were screened for activity using the α-synuclein cytotoxicity assay as described above. Dose responses were carried out on all compounds found to be active (10 point curves in duplicate).
SMILES,%I,EC50
"Cc1ccc(Cc2nsc(N3CCN(S(=O)(=O)c4ccc(Br)cc4)CC3)n2)cc1 [Compound 64, 1-[4-bromophenylsulfonyl]-4-[3-(4-methylbenzyl)-1,2,4-thiadiazol-5-yl]piperazine]",58%,
"Cc1ccc(Cc2nsc(N3CCN(S(=O)(=O)c4ccc5ccccc5c4)CC3)n2)cc1 [Compound 65, 1-[2-naphtylsulfonyl]-4-[3-(4-methylbenzyl)-1,2,4-thiadiazol-5-yl]piperazine]",78%,0.0393 µg/mL
"Cc1ccc(Cc2nsc(N3CCN(S(=O)(=O)c4ccc(Cl)cc4)CC3)n2)cc1 [Compound 66, 1-[4-chlorophenylsulfonyl]-4-[3-(4-methylbenzyl)-1,2,4-thiadiazol-5-yl]piperazine]",81%,
"Cc1ccc(Cc2nsc(N3CCN(S(=O)(=O)c4ccc(C(C)(C)C)cc4)CC3)n2)cc1 [Compound 67, 1-[4-tert-butylphenylsulfonyl]-4-[3-(4-methylbenzyl)-1,2,4-thiadiazol-5-yl]piperazine]",41%,
"COc1ccc(S(=O)(=O)N2CCN(c3nc(Cc4ccc(C)cc4)ns3)CC2)cc1 [Compound 68, 1-[4-methoxyphenylsulfonyl]-4-[3-(4-methylbenzyl)-1,2,4-thiadiazol-5-yl]piperazine]",53%,0.000255 µg/mL
"CC(C)(C)c1ccc(S(=O)(=O)N2CCN(c3nc(Cc4ccc(Cl)cc4)ns3)CC2)cc1 [Compound 69, 1-[4-tert-butylphenylsulfonyl]-4-[3-(4-chlorobenzyl)-1,2,4-thiadiazol-5-yl]piperazine]",31%,
"Cc1ccc(Cc2nsc(N3CCN(S(=O)(=O)c4cccc5cccnc45)CC3)n2)cc1 [Compound 70, 1-[quinoline-8-sulfonyl]-4-[3-(4-methylbenzyl)-1,2,4-thiadiazol-5-yl]piperazine]",44%,
"Cc1ccc(Cc2nsc(N3CCN(S(=O)(=O)c4ccc([N+](=O)[O-])cc4)C(C)C3)n2)cc1 (stereo not drawn) [Compound 71, 1-[4-nitrophenylsulfonyl]-4-[3-(4-methylbenzyl)-1,2,4-thiadiazol-5-yl]-2-methylpiperazine]",33%,
"CC1CN(c2nc(Cc3ccc(F)cc3)ns2)CCN1S(=O)(=O)c1ccc([N+](=O)[O-])cc1 (stereo not drawn) [Compound 73, 1-[4-nitrophenylsulfonyl]-4-[3-(4-fluorobenzyl)-1,2,4-thiadiazol-5-yl]-2-methylpiperazine]",33%,
"O=S(=O)(Cc1ccccc1)N1CCN(c2nc(Cc3ccc(Cl)cc3)ns2)CC1 [Compound 76, 1-(benzylsulfonyl)-4-[3-(4-chlorobenzyl)-1,2,4-thiadiazol-5-yl]piperazine]",40%,
"Cc1ccc(Cc2nsc(N3CCN(S(=O)(=O)Cc4ccccc4)CC3)n2)cc1 [Compound 77, 1-(benzylsulfonyl)-4-[3-(4-methylbenzyl)-1,2,4-thiadiazol-5-yl]piperazine]",81%,
"CCCCS(=O)(=O)N1CCN(c2nc(Cc3ccc(Cl)cc3)ns2)CC1 [Compound 81, 1-(butylsulfonyl)-4-[3-(4-chlorobenzyl)-1,2,4-thiadiazol-5-yl]piperazine]",80%,0.35 µg/mL
"CCCCCCCCS(=O)(=O)N1CCN(c2nc(Cc3ccc(C)cc3)ns2)CC1 [Compound 82, 1-(octylsulfonyl)-4-[3-(4-methylbenzyl)-1,2,4-thiadiazol-5-yl]piperazine]",50%,1.58 µg/mL
"CCCCS(=O)(=O)N1CCN(c2nc(Cc3ccc(C)cc3)ns2)CC1 [Compound 83, 1-(butylsulfonyl)-4-[3-(4-methylbenzyl)-1,2,4-thiadiazol-5-yl]piperazine]",36%,2.64 µg/mL
"CCS(=O)(=O)N1CCN(c2nc(Cc3ccc(Cl)cc3)ns2)CC1 [Compound 84, 1-(ethylsulfonyl)-4-[3-(4-chlorobenzyl)-1,2,4-thiadiazol-5-yl]piperazine]",53%,3.48 µg/mL
"Cc1ccc(Cc2nsc(N3CCN(S(=O)(=O)C(C)C)CC3)n2)cc1 [Compound 85, 1-(isopropylsulfonyl)-4-[3-(4-methylbenzyl)-1,2,4-thiadiazol-5-yl]piperazine]",69%,3.65 µg/mL
"CC1CN(c2nc(Cc3ccc(Cl)cc3)ns2)CCN1C(=O)/C=C/c1ccccc1 (stereo not drawn) [Compound 86, 1-[(2E)-3-phenylprop-2-enoyl]-4-[3-(4-chlorobenzyl)-1,2,4-thiadiazol-5-yl]-2-methylpiperazine]",81%,1.13 µg/mL
"CC1CN(c2nc(Cc3ccc(F)cc3)ns2)CCN1C(=O)/C=C/c1ccccc1 (stereo not drawn) [Compound 87, 1-[(2E)-3-phenylprop-2-enoyl]-4-B103-2-methylpiperazine]",94%,2.49 µg/mL

SMILES,%I,EC50
"O=C(/C=C/c1ccccc1)N1CCN(c2nc(Cc3ccc(Cl)cc3)ns2)CC1 [Compound 88, 1-[(2E)-3-phenylprop-2-enoyl]-4-[3-(4-chlorobenzyl)-1,2,4-thiadiazol-5-yl]piperazine]",72%,
"CC1CN(c2nc(Cc3ccc(F)cc3)ns2)CCN1C(=O)CCc1ccccc1 (stereo not drawn) [Compound 89, 1-(3-phenylpropanoyl)-4-[3-(4-fluorobenzyl)-1,2,4-thiadiazol-5-yl]-2-methylpiperazine]",86%,0.6 µg/mL
"O=C(CCc1ccccc1)N1CCN(c2nc(Cc3ccc(F)cc3)ns2)CC1 [Compound 90, 1-(3-phenylpropanoyl)-4-[3-(4-fluorobenzyl)-1,2,4-thiadiazol-5-yl]piperazine]",73%,1.41 µg/mL
"Cc1ccc(Cc2nsc(N3CCN(C/C=C/c4ccccc4)CC3)n2)cc1 [Compound 91, 1-[3-phenylprop-2-enyl]-4-[3-(4-methylbenzyl)-1,2,4-thiadiazol-5-yl]piperazine]",90%,0.71 µg/mL
"Clc1ccc(Cc2nsc(N3CCN(C/C=C/c4ccccc4)CC3)n2)cc1 [Compound 92, 1-[3-phenylprop-2-enyl]-4-[3-(4-chlorobenzyl)-1,2,4-thiadiazol-5-yl]piperazine]",69%,0.75 µg/mL
"Fc1ccc(Cc2nsc(N3CCN(C/C=C/c4ccccc4)CC3)n2)cc1 [Compound 93, 1-[3-phenylprop-2-enyl]-4-[3-(4-fluorobenzyl)-1,2,4-thiadiazol-5-yl]piperazine]",91%,1.99 µg/mL
"CCCCCc1ccc(C(=O)NCCN2CCN(c3nc(Cc4ccc(F)cc4)ns3)CC2)cc1 [Compound 94, 4-pentyl-N-{2-[4-[3-(4-fluorobenzyl)-1,2,4-thiadiazol-5-yl]piperazin-1-yl]ethyl}benzamide]",90%,0.35 µg/mL
"CCCCc1ccc(C(=O)NCCN2CCN(c3nc(Cc4ccc(F)cc4)ns3)CC2)cc1 [Compound 95, 4-butyl-N-{2-[4-[3-(4-fluorobenzyl)-1,2,4-thiadiazol-5-yl]piperazin-1-yl]ethyl}benzamide]",78%,0.38 µg/mL
"CCCCCCc1ccc(C(=O)NCCN2CCN(c3nc(Cc4ccc(F)cc4)ns3)CC2)cc1 [Compound 96, 4-hexyl-N-{2-[4-[3-(4-fluorobenzyl)-1,2,4-thiadiazol-5-yl]piperazin-1-yl]ethyl}benzamide]",72%,0.8 µg/mL
"O=C(NCCN1CCN(c2nc(Cc3ccc(F)cc3)ns2)CC1)c1ccc(Cl)cc1 [Compound 97, 4-chloro-N-{2-[4-[3-(4-fluorobenzyl)-1,2,4-thiadiazol-5-yl]piperazin-1-yl]ethyl}benzamide]",68%,1.29 µg/mL
"O=C(NCCN1CCN(c2nc(Cc3ccc(F)cc3)ns2)CC1)c1cc(Cl)cc(Cl)c1 [Compound 98, 3,5-dichloro-N-{2-[4-[3-(4-fluorobenzyl)-1,2,4-thiadiazol-5-yl]piperazin-1-yl]ethyl}benzamide]",102%,1.42 µg/mL
"Cc1ccccc1C(=O)NCCN1CCN(c2nc(Cc3ccc(F)cc3)ns2)CC1 [Compound 99, 2-methyl-N-{2-[4-[3-(4-fluorobenzyl)-1,2,4-thiadiazol-5-yl]piperazin-1-yl]ethyl}benzamide]",97%,1.58 µg/mL
"O=C(NCCN1CCN(c2nc(Cc3ccc(Cl)cc3)ns2)CC1)c1cccc(F)c1 [Compound 100, 3-fluoro-N-(2-[4-[3-(4-chlorobenzyl)-1,2,4-thiadiazof-5-yl]piperazin-1-yl]ethyl)benzamide]",75%,1.79 µg/mL
"Cc1ccc(C(=O)NCCN2CCN(c3nc(Cc4ccc(F)cc4)ns3)CC2)cc1 [Compound 101, 4-methyl-N-{2-[4-[3-(4-fluorobenzyl)-1,2,4-thiadiazol-5-yl]piperazin-1-yl]ethyl}benzamide]",68%,1.94 µg/mL
"O=C(NCCN1CCN(c2nc(Cc3ccc(F)cc3)ns2)CC1)c1ccc(F)cc1 [Compound 102, 4-fluoro-N-{2-[4-[3-(4-fluorobenzyl)-1,2,4-thiadiazol-5-yl]piperazin-1-yl]ethyl}benzamide]",80%,1.99 µg/mL
"CCc1ccc(C(=O)NCCN2CCN(c3nc(Cc4ccc(F)cc4)ns3)CC2)cc1 [Compound 103, 4-ethyl-N-{2-[4-[3-(4-fluorobenzyl)-1,2,4-thiadiazol-5-yl]piperazin-1-yl]ethyl}benzamide]",139%,2.32 µg/mL
"O=C(NCCN1CCN(c2nc(Cc3ccc(F)cc3)ns2)CC1)c1ccccc1 [Compound 104, N-{2-[4-[3-(4-fluorobenzyl)-1,2,4-thiadiazol-5-yl]piperazin-1-yl]ethyl}benzamide]",65%,3.82 µg/mL
